Tests used:
Assay in all cases: DSF 100 kinase selectivity screen;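 further: compound tested at 20 µM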
Assay type in all cases: binding
[1] = target: T1, ~100 representative kinases (Homo sapiens, UniProt P49137); settings: protein MAPKAPK2; average of three replicates
T1 construct: Recombinant protein kinase domains with a concentration of 2 μM
How it was run: (§1)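 Each kinase domain, at 2 μM, is mixed with 20 μM test compound and SYPRO Orange in Hepes (20 mM, pH 7.5) with 500 mM NaCl. Temperature is then raised at 3°C/min and fluorescence-monitored unfolding yields the melting temperature change, ΔTm in degrees Celsius.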

[2] = target: T2, ~100 representative kinases (Homo sapiens, UniProt O43293); settings: Protein DAPK3; average of three replicates
T2 construct: Recombinant protein kinase domains with a concentration of 2 μM
T2 sequence (O43293 whole entry, the tested form may be a part): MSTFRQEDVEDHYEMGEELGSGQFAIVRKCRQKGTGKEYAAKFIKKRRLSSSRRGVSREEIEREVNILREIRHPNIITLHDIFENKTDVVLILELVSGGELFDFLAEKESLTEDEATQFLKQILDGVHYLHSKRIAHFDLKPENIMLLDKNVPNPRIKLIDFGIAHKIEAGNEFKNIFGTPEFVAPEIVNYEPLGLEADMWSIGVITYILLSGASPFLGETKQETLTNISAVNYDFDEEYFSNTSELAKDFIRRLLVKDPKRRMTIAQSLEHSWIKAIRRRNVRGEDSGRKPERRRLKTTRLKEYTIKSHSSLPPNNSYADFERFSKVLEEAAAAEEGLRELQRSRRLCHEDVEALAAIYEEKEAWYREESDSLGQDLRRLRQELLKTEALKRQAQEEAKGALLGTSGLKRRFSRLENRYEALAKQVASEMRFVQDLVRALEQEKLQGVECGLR
How it was run: as §1

[3] = target: T3, ~100 representative kinases (Homo sapiens, UniProt Q96SB4); settings: Protein SRPK1; DSF; average of three replicates
T3 construct: Recombinant protein kinase domains with a concentration of 2 μM
T3 sequence (Q96SB4 whole entry, the tested form may be a part): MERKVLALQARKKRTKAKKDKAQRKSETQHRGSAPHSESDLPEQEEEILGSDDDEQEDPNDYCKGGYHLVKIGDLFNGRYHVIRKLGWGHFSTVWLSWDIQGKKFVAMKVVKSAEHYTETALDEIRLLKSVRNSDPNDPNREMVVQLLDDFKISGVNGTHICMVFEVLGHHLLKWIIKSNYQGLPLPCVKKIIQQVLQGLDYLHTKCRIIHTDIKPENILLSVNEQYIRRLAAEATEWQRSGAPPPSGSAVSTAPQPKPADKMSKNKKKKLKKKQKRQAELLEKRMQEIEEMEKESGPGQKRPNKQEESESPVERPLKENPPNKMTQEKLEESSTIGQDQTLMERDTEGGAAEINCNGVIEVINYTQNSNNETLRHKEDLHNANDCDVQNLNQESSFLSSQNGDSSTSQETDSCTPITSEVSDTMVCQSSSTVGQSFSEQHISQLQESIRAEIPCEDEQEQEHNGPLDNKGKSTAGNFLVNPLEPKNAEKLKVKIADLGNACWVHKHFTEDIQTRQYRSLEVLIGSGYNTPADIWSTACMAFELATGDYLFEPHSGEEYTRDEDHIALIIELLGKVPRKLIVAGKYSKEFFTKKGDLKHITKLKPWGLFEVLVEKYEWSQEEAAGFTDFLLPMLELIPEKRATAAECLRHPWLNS
How it was run: as §1

[4] = target: T4, ~100 representative kinases (Homo sapiens, UniProt P28482); settings: protein MAPK1; average of three replicates
T4 construct: Recombinant protein kinase domains with a concentration of 2 μM
T4 sequence (P28482 whole entry, the tested form may be a part): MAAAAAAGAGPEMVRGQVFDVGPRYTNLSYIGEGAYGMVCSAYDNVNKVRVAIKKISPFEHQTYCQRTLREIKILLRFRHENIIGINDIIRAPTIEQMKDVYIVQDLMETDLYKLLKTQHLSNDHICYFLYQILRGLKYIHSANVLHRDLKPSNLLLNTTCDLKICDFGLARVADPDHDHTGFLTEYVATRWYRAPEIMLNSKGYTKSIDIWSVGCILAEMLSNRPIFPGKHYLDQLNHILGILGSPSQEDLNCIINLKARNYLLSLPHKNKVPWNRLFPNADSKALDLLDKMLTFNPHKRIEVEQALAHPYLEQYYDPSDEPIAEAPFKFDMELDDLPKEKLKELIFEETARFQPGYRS
How it was run: as §1

[5] = target: T5, ~100 representative kinases (Homo sapiens, UniProt P54764); settings: Protein EPHA4; average of three replicates
T5 construct: Recombinant protein kinase domains with a concentration of 2 μM
T5 sequence (P54764 20-986): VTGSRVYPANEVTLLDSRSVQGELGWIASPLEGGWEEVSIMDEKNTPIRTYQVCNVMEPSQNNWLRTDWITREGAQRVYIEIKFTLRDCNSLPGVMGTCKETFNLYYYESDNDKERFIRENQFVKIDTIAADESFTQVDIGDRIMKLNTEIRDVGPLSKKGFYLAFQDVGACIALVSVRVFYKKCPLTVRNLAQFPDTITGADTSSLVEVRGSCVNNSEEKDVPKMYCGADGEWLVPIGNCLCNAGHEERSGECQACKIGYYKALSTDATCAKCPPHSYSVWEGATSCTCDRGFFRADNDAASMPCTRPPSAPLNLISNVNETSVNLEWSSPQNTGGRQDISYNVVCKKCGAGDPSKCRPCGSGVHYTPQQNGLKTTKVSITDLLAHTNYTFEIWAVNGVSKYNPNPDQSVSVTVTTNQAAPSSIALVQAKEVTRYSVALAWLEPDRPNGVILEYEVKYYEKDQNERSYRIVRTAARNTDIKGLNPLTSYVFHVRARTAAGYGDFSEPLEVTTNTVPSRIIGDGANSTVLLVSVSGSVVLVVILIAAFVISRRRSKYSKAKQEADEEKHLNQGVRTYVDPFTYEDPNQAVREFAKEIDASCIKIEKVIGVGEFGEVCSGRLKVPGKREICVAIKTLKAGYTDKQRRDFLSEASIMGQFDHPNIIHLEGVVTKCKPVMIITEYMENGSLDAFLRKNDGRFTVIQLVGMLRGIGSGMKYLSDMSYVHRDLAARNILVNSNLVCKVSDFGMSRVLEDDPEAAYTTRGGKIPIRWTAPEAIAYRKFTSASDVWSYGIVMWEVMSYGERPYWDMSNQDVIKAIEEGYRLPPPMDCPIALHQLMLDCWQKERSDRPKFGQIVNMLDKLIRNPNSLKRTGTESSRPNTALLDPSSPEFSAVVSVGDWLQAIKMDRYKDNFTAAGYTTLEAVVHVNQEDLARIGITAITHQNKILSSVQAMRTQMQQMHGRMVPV
How it was run: as §1

[6] = target: T6, ~100 representative kinases (Homo sapiens, UniProt Q99683); settings: protein MAP3K5; average of three replicates
T6 construct: Recombinant protein kinase domains with a concentration of 2 μM
T6 sequence (Q99683 1-1374): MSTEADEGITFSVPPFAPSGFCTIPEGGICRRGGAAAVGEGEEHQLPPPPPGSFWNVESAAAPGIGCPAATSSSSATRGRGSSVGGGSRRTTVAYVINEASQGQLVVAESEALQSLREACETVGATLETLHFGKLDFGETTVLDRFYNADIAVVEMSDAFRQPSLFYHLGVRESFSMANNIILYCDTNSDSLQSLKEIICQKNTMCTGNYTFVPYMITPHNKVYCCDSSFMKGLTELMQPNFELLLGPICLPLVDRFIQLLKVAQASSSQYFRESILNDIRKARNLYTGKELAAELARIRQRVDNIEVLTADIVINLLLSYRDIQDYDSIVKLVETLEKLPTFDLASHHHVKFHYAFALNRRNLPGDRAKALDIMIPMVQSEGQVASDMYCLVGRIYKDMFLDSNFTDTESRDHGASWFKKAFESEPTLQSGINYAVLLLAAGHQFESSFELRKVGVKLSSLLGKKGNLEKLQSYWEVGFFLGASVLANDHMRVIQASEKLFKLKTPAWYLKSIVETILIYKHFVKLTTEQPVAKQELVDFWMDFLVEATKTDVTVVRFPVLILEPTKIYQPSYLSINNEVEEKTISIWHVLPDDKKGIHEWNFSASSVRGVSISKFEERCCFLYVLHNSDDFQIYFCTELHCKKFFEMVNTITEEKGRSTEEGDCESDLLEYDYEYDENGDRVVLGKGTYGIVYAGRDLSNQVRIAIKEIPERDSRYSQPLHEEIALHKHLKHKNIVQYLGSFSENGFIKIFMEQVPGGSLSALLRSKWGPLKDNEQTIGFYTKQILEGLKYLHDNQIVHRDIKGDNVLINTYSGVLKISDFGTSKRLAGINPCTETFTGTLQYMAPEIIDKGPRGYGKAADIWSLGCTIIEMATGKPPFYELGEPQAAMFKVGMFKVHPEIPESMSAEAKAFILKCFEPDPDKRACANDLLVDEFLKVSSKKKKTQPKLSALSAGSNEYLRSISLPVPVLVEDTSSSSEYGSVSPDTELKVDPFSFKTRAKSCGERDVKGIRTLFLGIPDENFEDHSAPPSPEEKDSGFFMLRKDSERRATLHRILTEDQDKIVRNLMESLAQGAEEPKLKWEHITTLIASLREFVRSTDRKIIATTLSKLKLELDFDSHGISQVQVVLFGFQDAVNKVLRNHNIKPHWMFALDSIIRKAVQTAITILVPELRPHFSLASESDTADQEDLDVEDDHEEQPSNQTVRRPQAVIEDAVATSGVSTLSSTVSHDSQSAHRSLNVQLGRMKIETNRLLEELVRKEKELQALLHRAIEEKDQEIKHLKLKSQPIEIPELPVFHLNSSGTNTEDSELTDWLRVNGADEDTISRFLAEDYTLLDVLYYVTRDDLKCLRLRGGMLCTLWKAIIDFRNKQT
How it was run: as §1

[7] = target: T7, ~100 representative kinases (Homo sapiens, UniProt Q09013); settings: Protein DMPK1; average of three replicates
T7 construct: Recombinant protein kinase domains with a concentration of 2 μM
T7 sequence (Q09013 1-629): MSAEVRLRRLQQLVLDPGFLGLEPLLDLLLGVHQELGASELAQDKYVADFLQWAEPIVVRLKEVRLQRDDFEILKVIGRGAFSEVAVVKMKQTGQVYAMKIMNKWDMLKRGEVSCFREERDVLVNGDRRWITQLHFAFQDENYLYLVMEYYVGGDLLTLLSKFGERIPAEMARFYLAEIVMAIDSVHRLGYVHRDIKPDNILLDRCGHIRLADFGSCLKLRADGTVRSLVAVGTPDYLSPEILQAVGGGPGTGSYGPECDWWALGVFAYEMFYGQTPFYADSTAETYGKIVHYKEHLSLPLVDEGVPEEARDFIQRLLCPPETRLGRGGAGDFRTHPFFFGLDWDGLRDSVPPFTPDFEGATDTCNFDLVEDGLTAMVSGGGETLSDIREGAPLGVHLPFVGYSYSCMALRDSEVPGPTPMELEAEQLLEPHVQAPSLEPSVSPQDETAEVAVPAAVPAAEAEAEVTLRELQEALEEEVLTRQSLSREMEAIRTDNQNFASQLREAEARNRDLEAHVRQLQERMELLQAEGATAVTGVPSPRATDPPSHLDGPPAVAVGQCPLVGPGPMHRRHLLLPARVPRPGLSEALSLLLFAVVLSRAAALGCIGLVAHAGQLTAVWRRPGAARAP
How it was run: as §1

[8] = target: T8, ~100 representative kinases (Homo sapiens, UniProt P24941); settings: Protein CDK2; average of three replicates
T8 construct: Recombinant protein kinase domains with a concentration of 2 μM
How it was run: as §1

[9] = target: T9, ~100 representative kinases (Homo sapiens, UniProt P54756); settings: Protein EPHA5; average of three replicates
T9 construct: Recombinant protein kinase domains with a concentration of 2 μM
T9 sequence (P54756 25-1037): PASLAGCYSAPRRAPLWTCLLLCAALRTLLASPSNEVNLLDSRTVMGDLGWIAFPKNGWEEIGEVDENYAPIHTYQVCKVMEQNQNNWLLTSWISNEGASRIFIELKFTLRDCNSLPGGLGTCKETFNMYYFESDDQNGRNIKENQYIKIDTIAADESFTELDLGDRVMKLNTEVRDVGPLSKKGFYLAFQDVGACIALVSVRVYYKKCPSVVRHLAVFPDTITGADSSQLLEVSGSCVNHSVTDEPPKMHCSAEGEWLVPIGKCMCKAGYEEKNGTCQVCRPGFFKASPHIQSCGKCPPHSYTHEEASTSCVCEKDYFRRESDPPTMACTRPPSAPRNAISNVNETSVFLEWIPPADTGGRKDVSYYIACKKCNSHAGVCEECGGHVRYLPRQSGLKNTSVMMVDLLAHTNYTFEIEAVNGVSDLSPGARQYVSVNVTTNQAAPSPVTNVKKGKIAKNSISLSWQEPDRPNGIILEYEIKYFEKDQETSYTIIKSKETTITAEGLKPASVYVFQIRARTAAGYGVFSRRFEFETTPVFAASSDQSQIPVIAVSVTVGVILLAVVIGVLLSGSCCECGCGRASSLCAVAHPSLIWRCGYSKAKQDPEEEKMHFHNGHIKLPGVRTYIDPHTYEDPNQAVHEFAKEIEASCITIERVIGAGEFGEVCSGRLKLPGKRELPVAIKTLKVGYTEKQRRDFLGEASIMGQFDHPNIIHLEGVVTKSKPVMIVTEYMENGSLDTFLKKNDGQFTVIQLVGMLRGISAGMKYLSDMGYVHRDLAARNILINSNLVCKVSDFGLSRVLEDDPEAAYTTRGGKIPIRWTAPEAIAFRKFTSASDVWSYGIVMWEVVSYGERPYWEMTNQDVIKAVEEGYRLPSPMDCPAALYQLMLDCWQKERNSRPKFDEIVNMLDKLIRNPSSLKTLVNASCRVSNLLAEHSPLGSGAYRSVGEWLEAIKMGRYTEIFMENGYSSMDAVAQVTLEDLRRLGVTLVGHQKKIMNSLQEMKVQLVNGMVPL
How it was run: as §1

[10] = target: T10, ~100 representative kinases (Homo sapiens, UniProt Q8IU85); settings: Protein CAMK1D; average of three replicates
T10 construct: Recombinant protein kinase domains with a concentration of 2 μM
T10 sequence (Q8IU85 whole entry, the tested form may be a part): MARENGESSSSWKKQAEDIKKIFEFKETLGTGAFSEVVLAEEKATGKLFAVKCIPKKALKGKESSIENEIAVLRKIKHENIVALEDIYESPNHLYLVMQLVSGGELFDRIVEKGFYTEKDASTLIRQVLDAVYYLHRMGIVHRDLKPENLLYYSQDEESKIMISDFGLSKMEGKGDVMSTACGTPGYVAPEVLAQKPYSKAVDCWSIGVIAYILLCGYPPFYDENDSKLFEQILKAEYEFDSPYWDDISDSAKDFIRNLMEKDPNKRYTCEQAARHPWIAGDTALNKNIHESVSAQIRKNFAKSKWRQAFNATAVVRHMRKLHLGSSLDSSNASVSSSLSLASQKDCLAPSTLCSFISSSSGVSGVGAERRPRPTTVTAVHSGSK
How it was run: as §1

[11] = target: T11, ~100 representative kinases (Homo sapiens, UniProt P49674); settings: Protein CSNK1E; average of three replicates
T11 construct: Recombinant protein kinase domains with a concentration of 2 μM
T11 sequence (P49674 whole entry, the tested form may be a part): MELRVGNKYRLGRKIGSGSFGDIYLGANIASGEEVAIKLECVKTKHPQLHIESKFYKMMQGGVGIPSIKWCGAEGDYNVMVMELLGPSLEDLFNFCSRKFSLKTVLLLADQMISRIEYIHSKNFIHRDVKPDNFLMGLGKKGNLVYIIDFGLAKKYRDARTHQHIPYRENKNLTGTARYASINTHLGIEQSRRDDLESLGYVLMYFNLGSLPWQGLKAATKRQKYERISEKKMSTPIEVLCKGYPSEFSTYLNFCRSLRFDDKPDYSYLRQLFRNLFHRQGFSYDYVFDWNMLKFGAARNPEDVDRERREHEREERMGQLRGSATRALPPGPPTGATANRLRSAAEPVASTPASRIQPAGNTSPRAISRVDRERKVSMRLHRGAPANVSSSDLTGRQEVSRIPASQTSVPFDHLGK
How it was run: as §1

T1 sequence (P49137 whole entry, the tested form may be a part): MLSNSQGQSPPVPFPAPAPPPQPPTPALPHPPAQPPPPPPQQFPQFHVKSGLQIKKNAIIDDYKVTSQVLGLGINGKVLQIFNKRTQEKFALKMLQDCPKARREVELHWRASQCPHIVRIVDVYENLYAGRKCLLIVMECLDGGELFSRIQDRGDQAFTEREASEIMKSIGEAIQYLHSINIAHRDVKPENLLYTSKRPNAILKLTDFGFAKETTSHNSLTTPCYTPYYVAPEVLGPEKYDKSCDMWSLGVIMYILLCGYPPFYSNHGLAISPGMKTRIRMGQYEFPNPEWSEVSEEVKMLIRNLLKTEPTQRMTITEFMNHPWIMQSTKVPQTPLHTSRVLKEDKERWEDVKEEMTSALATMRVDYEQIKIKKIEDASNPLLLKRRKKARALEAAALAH

| Compound | dTm [1] | dTm [2] | dTm [3] | dTm [4] | dTm [5] | dTm [6] | dTm [7] | dTm [8] | dTm [9] | dTm [10] | dTm [11] |
| --- | --- | --- | --- | --- | --- | --- | --- | --- | --- | --- | --- |
| CCc1ccc(NC(=O)C2(C(=O)Nc3cccc(-c4c[nH]c5ncnc(N6CCOCC6)c45)c3)CC2)cc1 [Compound 15] | 0.05 K | 3.77 K | 5.47 K | -0.47 K | 2.16 K | 1.27 K | -1.02 K | 9.83 K | 2.15 K | -1.11 K | 2.91 K |
| COc1ccc(NC(=O)C2(C(=O)Nc3cccc(-c4c[nH]c5ncnc(N6CCOCC6)c45)c3)CC2)cc1 [Compound 16] | -0.05 K | 1.15 K | 3.35 K | -0.34 K | -0.05 K | 0.46 K | -0.98 K | 5.86 K | -0.30 K | -1.41 K | 2.19 K |
| O=C(Nc1cccc(-c2c[nH]c3ncnc(N4CCOCC4)c23)c1)C1(C(=O)Nc2ccc(F)c(F)c2)CC1 [Compound 17] | -0.12 K | 8.69 K | 8.69 K | -0.20 K | 1.24 K | 3.32 K | -0.94 K | 5.91 K | 2.05 K | -0.44 K | 5.09 K |
| O=C(Nc1cccc(-c2c[nH]c3ncnc(N4CCOCC4)c23)c1)C1(C(=O)Nc2ccc(F)c(Cl)c2)CC1 [Compound 18] | 0.22 K | 10.62 K | 12.10 K | 0.11 K | 1.94 K | 3.67 K | -0.69 K | 6.75 K | 2.50 K | 1.04 K | 5.76 K |
| O=C(Nc1cccc(-c2c[nH]c3ncnc(N4CCOCC4)c23)c1)C1(C(=O)Nc2ccc(F)c(Br)c2)CC1 [Compound 19] | -0.94 K | 8.34 K | 7.58 K | -0.09 K | 1.78 K | 5.22 K | -0.17 K | 7.42 K | 2.70 K | 3.06 K | 6.33 K |
| Cc1cc(NC(=O)C2(C(=O)Nc3cccc(-c4c[nH]c5ncnc(N6CCOCC6)c45)c3)CC2)ccc1F [Compound 20] | -0.28 K | 10.09 K | 13.77 K | 0.024 K | 3.23 K | 4.77 K | -1.17 K | 8.50 K | 3.44 K | 0.0569 K | 6.52 K |
| COc1cc(NC(=O)C2(C(=O)Nc3cccc(-c4c[nH]c5ncnc(N6CCOCC6)c45)c3)CC2)ccc1F [Compound 21] | -0.29 K | 7.62 K | 11.40 K | -0.09 K | 0.24 K | 2.37 K | -1.06 K | 4.67 K | 0.44 K | -0.74 K | 5.78 K |
| CC(C)(C)c1cccc(NC(=O)C2(C(=O)Nc3cccc(-c4c[nH]c5ncnc(N6CCOCC6)c45)c3)CC2)c1 [Compound 22] | -0.67 K | 3.52 K | 9.79 K | 0.30 K | 2.71 K | 2.56 K | -0.60 K | 5.91 K | 2.41 K | 3.02 K | 6.66 K |
| O=C(Nc1cccc(-c2c[nH]c3ncnc(N4CCOCC4)c23)c1)C1(C(=O)Nc2ccc(F)cc2F)CC1 [Compound 23] | -0.35 K | 3.66 K | 6.35 K | -0.16 K | 1.15 K | 2.39 K | -0.57 K | 3.56 K | 1.86 K | -1.25 K | 3.09 K |
